The conditions of this data set: 20-membered ring.

Like-named read-outs stand apart in the source and are kept apart here.

`CC(C)C[C@@H]1NC(=O)[C@H](CO)NC(=O)[C@H](CC(=O)O)NC(=O)[C@@H](CC(C)C)NC(=O)[C@@H](N)CSSC[C@@H](C(=O)O)NC1=O` [C*dLDSLC*]: the ring closure, yield after HPLC (from H-Cys(Acm)-dLeu-Asp-Ser-Leu-Cys(Acm)-OH, disulfide bond, AgOTf/anisole/TFA, then DMSO/HCl, 50% DMSO-1N HCl, 2 steps) was 77%. `CC[C@H](C)[C@@H]1NC(=O)[C@H](Cc2ccccc2)NC(=O)[C@H](CC(=O)O)NC(=O)[C@H]([C@@H](C)CC)NC(=O)[C@@H](N)CSSC[C@@H](C(=O)O)NC1=O` [C*IDFIC*]: the ring closure, yield after HPLC (from H-Cys(Acm)-Ile-Asp-Phe-Ile-Cys(Acm)-OH, disulfide bond, AgOTf/anisole/TFA, then DMSO/HCl, 50% DMSO-1N HCl, 2 steps) stood at 37%. With `CC(C)C[C@@H]1NC(=O)[C@H](Cc2c[nH]cn2)NC(=O)[C@H](CC(=O)O)NC(=O)[C@H](C(C)C)NC(=O)[C@@H](N)CSSC[C@@H](C(=O)O)NC1=O` [C*VDHLC*], for the setting “from H-Cys(Acm)-Val-Asp-His-Leu-Cys(Acm)-OH, disulfide bond, AgOTf/anisole/TFA, then DMSO/HCl, 50% DMSO-1N HCl, 2 steps”, the ring closure, yield after HPLC came to 75%. Molecule D(CO—)ChgMet(O2)PhgLDpr(NH—) registered a ring closure, yield after HPLC (amide bond, with chain assembly) of 7%. With `CC(C)C[C@@H]1NC(=O)[C@H](Cc2c[nH]cn2)NC(=O)[C@H](CCS(C)(=O)=O)NC(=O)[C@H](C2CCCCC2)NC(=O)[C@@H](N)CSSC[C@@H](C(=O)O)NC1=O` [C*ChgMet(O2)HLC*], for the setting “from H-Cys(Acm)-Chg-Met(O2)-His-Leu-Cys(Acm)-OH, disulfide bond, AgOTf/anisole/TFA, then DMSO/HCl, 50% DMSO-1N HCl, 2 steps”, the ring closure, yield after HPLC is 41%. On to `CC(C)C[C@@H]1NC(=O)[C@H](Cc2c[nH]cn2)NC(=O)[C@H](CC(=O)O)NC(=O)[C@@H](c2ccccc2)NC(=O)[C@@H](N)CSSC[C@@H](C(=O)O)NC1=O` [C*dPhgDHLC*], for which, where the note is “from H-Cys(Acm)-dPhg-Asp-His-Leu-Cys(Acm)-OH, disulfide bond, AgOTf/anisole/TFA, then DMSO/HCl, 50% DMSO-1N HCl, 2 steps”, the ring closure, yield after HPLC was 55%. Molecule `CC(C)C[C@@H]1NC(=O)[C@@H](Cc2ccccc2)NC(=O)[C@H](CCS(C)(=O)=O)NC(=O)[C@H](C2CCCCC2)NC(=O)[C@@H](N)CSSC[C@@H](C(=O)O)NC1=O` [C*ChgMet(O2)dFLC*] had a ring closure, yield after HPLC (from H-Cys(Acm)-Chg-Met(O2)-dPhe-Leu-Cys(Acm)-OH, disulfide bond, AgOTf/anisole/TFA, then DMSO/HCl, 50% DMSO-1N HCl, 2 steps) of 26%. Molecule `CC[C@H](C)[C@@H]1NC(=O)[C@@H](N)CSSC[C@@H](C(=O)O)NC(=O)[C@H](CC(C)C)NC(=O)[C@H](Cc2c[nH]cn2)NC(=O)[C@H](CCS(C)(=O)=O)NC1=O` [C*IMet(O2)HLC*] yielded a ring closure, yield after HPLC (from H-Cys(Acm)-Ile-Met(O2)-His-Leu-Cys(Acm)-OH, disulfide bond, AgOTf/anisole/TFA, then DMSO/HCl, 50% DMSO-1N HCl, 2 steps) of 68%. For the setting “from H-Cys(Acm)-Tle-Asp-His-Leu-Cys(Acm)-OH, disulfide bond, AgOTf/anisole/TFA, then DMSO/HCl, 50% DMSO-1N HCl, 2 steps”, `CC(C)C[C@@H]1NC(=O)[C@H](Cc2c[nH]cn2)NC(=O)[C@H](CC(=O)O)NC(=O)[C@H](C(C)(C)C)NC(=O)[C@@H](N)CSSC[C@@H](C(=O)O)NC1=O` [C*TleDHLC*] returned a ring closure, yield after HPLC of 69%. Molecule `CC[C@H](C)[C@@H]1NC(=O)[C@H](N)CSSC[C@@H](C(=O)O)NC(=O)[C@H](CC(C)C)NC(=O)[C@H](Cc2c[nH]cn2)NC(=O)[C@H](CC(=O)O)NC1=O` [dC*IDHLC*] showed a ring closure, yield after HPLC (from H-dCys(Acm)-Ile-Asp-His-Leu-Cys(Acm)-OH, disulfide bond, AgOTf/anisole/TFA, then DMSO/HCl, 50% DMSO-1N HCl, 2 steps) of 39%. Regarding `CC(C)C[C@@H]1NC(=O)[C@@H](c2ccccc2)NC(=O)[C@H](CCS(C)(=O)=O)NC(=O)[C@H](C2CCCCC2)NC(=O)[C@@H](N)CSSC[C@@H](C(=O)O)NC1=O` [C*ChgMet(O2)dPhgLC*], where the note is “from H-Cys(Acm)-Chg-Met(O2)-dPhg-Leu-Cys(Acm)-OH, disulfide bond, AgOTf/anisole/TFA, then DMSO/HCl, 50% DMSO-1N HCl, 2 steps”, the ring closure, yield after HPLC came to 8%. Take `CC[C@H](C)[C@@H]1NC(=O)[C@H](Cc2c[nH]cn2)NC(=O)[C@H](CC(=O)O)NC(=O)[C@H]([C@@H](C)CC)NC(=O)[C@@H](N)CSSC[C@@H](C(=O)O)NC1=O` [C*IDHIC*]: the ring closure, yield after HPLC (from H-Cys(Acm)-Ile-Asp-His-Ile-Cys(Acm)-OH, disulfide bond, AgOTf/anisole/TFA, then DMSO/HCl, 50% DMSO-1N HCl, 2 steps) was 50%. Molecule `CC[C@H](C)[C@@H]1NC(=O)[C@@H](N)CSSC[C@@H](C(=O)O)NC(=O)[C@@H](CC(C)C)NC(=O)[C@H](Cc2c[nH]cn2)NC(=O)[C@H](CC(=O)O)NC1=O` [C*IDHdLC*] gave a ring closure, yield after HPLC (from H-Cys(Acm)-Ile-Asp-His-dLeu-Cys(Acm)-OH, disulfide bond, AgOTf/anisole/TFA, then DMSO/HCl, 50% DMSO-1N HCl, 2 steps) of 51%. With `CC[C@H](C)[C@@H]1NC(=O)[C@@H](N)CSSC[C@@H](C(=O)O)NC(=O)[C@H](CC(C)C)NC(=O)[C@H](Cc2ccccn2)NC(=O)[C@H](CC(=O)O)NC1=O` [C*IDAla(2-Pyr)LC*], the ring closure, yield after HPLC (from H-Cys(Acm)-Ile-Asp-Ala(2-Pyr)-Leu-Cys(Acm)-OH, disulfide bond, AgOTf/anisole/TFA, then DMSO/HCl, 50% DMSO-1N HCl, 2 steps) was determined as 56%. On to `CC(C)C[C@@H]1NC(=O)[C@H](Cc2c[nH]cn2)NC(=O)[C@H](CC(=O)O)NC(=O)[C@H](C)NC(=O)[C@@H](N)CSSC[C@@H](C(=O)O)NC1=O` [C*ADHLC*], for which the ring closure, yield after HPLC (from H-Cys(Acm)-Ala-Asp-His-Leu-Cys(Acm)-OH, disulfide bond, AgOTf/anisole/TFA, then DMSO/HCl, 50% DMSO-1N HCl, 2 steps) stood at 59%. Where the note is “from H-Cys(Acm)-Chg-Met(O2)-dPhg-Leu-dCys(Acm)-OH, disulfide bond, AgOTf/anisole/TFA, then DMSO/HCl, 50% DMSO-1N HCl, 2 steps”, `CC(C)C[C@@H]1NC(=O)[C@@H](c2ccccc2)NC(=O)[C@H](CCS(C)(=O)=O)NC(=O)[C@H](C2CCCCC2)NC(=O)[C@@H](N)CSSC[C@H](C(=O)O)NC1=O` [C*ChgMet(O2)dPhgLdC*] registered a ring closure, yield after HPLC of 40%. `CC(C)C[C@@H]1NC(=O)[C@@H](Cc2ccc(O)cc2)NC(=O)[C@H](CCS(C)(=O)=O)NC(=O)[C@H](C2CCCCC2)NC(=O)[C@@H](N)CSSC[C@@H](C(=O)O)NC1=O` [C*ChgMet(O2)dYLC*] had a ring closure, yield after HPLC (from H-Cys(Acm)-Chg-Met(O2)-dTyr-Leu-Cys(Acm)-OH, disulfide bond, AgOTf/anisole/TFA, then DMSO/HCl, 50% DMSO-1N HCl, 2 steps) of 37%. `CC[C@H](C)[C@@H]1NC(=O)[C@@H](N)CSSC[C@@H](C(=O)OC)NC(=O)[C@H](CC(C)C)NC(=O)[C@H](Cc2c[nH]cn2)NC(=O)[C@H](CC(=O)O)NC1=O` [C*IDHLC—OMe*] returned a ring closure, yield after HPLC (from H-Cys(Acm)-Ile-Asp-His-Leu-Cys(Acm)-OMe, disulfide bond, AgOTf/anisole/TFA, then DMSO/HCl, 50% DMSO-1N HCl, 2 steps) of 35%. As to `CC[C@H](C)[C@@H]1NC(=O)[C@@H](N)CSSC[C@@H](C(=O)OC)NC(=O)[C@H](CC(C)C)NC(=O)[C@H](Cc2c[nH]cn2)NC(=O)[C@H](CC(=O)OC)NC1=O` [C*ID(OMe)HLC—OMe*], the ring closure, yield after HPLC (from H-Cys(Acm)-Ile-Asp(OMe)-His-Leu-Cys(Acm)-OMe, disulfide bond, AgOTf/anisole/TFA, then DMSO/HCl, 50% DMSO-1N HCl, 2 steps) was found to be 34%.

On to `CC[C@H](C)[C@@H]1NC(=O)[C@@H](N)CSSC[C@@H](C(=O)O)NC(=O)[C@H](CC(C)C)NC(=O)[C@H](C)NC(=O)[C@H](CC(=O)O)NC1=O` [C*IDALC*], for which, where the note is “from H-Cys(Acm)-Ile-Asp-Ala-Leu-Cys(Acm)-OH, disulfide bond, AgOTf/anisole/TFA, then DMSO/HCl, 50% DMSO-1N HCl, 2 steps”, the ring closure, yield after HPLC came to 52%. `CC[C@H](C)[C@@H]1NC(=O)[C@@H](N)CSSC[C@@H](C(=O)O)NC(=O)[C@H](CC(C)C)NC(=O)[C@H](Cc2c[nH]c3ccccc23)NC(=O)[C@H](CC(=O)O)NC1=O` [C*IDWLC*] returned a ring closure, yield after HPLC (from H-Cys(Acm)-Ile-Asp-Trp-Leu-Cys(Acm)-OH, disulfide bond, AgOTf/anisole/TFA, then DMSO/HCl, 50% DMSO-1N HCl, 2 steps) of 47%. The molecule `CC(C)C[C@@H]1NC(=O)[C@H](Cc2c[nH]cn2)NC(=O)[C@H](CC(=O)O)NC(=O)[C@H](C2CCCCC2)NC(=O)[C@@H](N)CSSC[C@@H](C(=O)O)NC1=O` [C*ChgDHLC*] returned a ring closure, yield after HPLC (from H-Cys(Acm)-Chg-Asp-His-Leu-Cys(Acm)-OH, disulfide bond, AgOTf/anisole/TFA, then DMSO/HCl, 50% DMSO-1N HCl, 2 steps) of 68%. In turn, `CC[C@H](C)[C@@H]1NC(=O)[C@@H](N)CSSC[C@@H](C(N)=O)NC(=O)[C@H](CC(C)C)NC(=O)[C@H](Cc2c[nH]cn2)NC(=O)[C@H](CC(N)=O)NC1=O` [C*INHLC*—NH2] returned a ring closure, yield after HPLC (from H-Cys(Acm)-Ile-Asn-His-Leu-Cys(Acm)-NH2, disulfide bond, AgOTf/anisole/TFA, then DMSO/HCl, 50% DMSO-1N HCl, 2 steps) of 18%. Regarding `CC[C@H](C)[C@@H]1NC(=O)[C@@H](N)CSSC[C@@H](C(N)=O)NC(=O)[C@H](CC(C)C)NC(=O)[C@H](Cc2c[nH]cn2)NC(=O)[C@H](CC(=O)O)NC1=O` [C*IDHLC*—NH2], the ring closure, yield after HPLC (from H-Cys(Acm)-Ile-Asp-His-Leu-Cys(Acm)-NH2, disulfide bond, AgOTf/anisole/TFA, then DMSO/HCl, 50% DMSO-1N HCl, 2 steps) was 58%. Turning to `CC[C@H](C)[C@@H]1NC(=O)CCSSC[C@@H](C(=O)O)NC(=O)[C@H](CC(C)C)NC(=O)[C@H](Cc2c[nH]cn2)NC(=O)[C@H](CC(=O)O)NC1=O` [Mpr*IDHLC*], the ring closure, yield after HPLC (from Mpr(Acm)-Ile-Asp-His-Leu-Cys(Acm)-OH, disulfide bond, AgOTf/anisole/TFA, then DMSO/HCl, 50% DMSO-1N HCl, 2 steps) was determined as 33%. As for `CC[C@H](C)[C@@H]1NC(=O)[C@@H](N)CSSC[C@@H](C(=O)O)NC(=O)[C@H](CC(C)C)NC(=O)[C@H](Cc2c[nH]cn2)NC(=O)[C@H](CC(=O)O)NC1=O` [C*IDHLC*], the ring closure, yield after HPLC (from H-Cys(Acm)-Ile-Asp-His-Leu-Cys(Acm)-OH, disulfide bond, AgOTf/anisole/TFA, then DMSO/HCl, 50% DMSO-1N HCl, 0.48 mM, 2 steps) amounted to 73%.

Values taken from US6511961B1, “Cyclic peptides and medicinal use thereof” (Toray Industries, Inc., priority 1997, dated 2003).
